The record followed here is patent US20220257774A1, “AROMATIC AMINE AR AHD BET TARGETING PROTEIN DEGRADATION CHIMERA COMPOUND AND USE” (HINOVA PHARMACEUTICALS INC., priority 2019, published 2022).

One assay deals with LNCaP/AR cells. Put plainly: Inhibition of the proliferation of LNCap/AR cells (CCK-8). Format: cell-based. Conditions: read-out: LNCap/AR IC50. The method in brief: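 LNCaP/AR cells (1000/well, RPMI1640 + 10% FBS) were treated for 6 days at 37 °C with 9-point 3-fold dilutions from 10 μM final, 0.1% DMSO, in duplicate. Viability was read by CCK-8 absorbance at 450 nm after 1 h, and IC50 came from a dose-response-inhibition fit.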

For another assay, the system named is 22RV1 cells. Put plainly: Inhibition of the proliferation of drug-resistant prostate cancer cell 22RV1 (CCK-8). Type of assay: cell-based. Conditions: 22RV1 cells (enzalutamide-resistant), same method. The method in brief:
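22RV1 cells, 1000/well in RPMI1640 with 10% FBS, treated in duplicate with 9-point 3-fold dilutions from 10 μM (0.1% DMSO final). After 6 days at 37 °C, CCK-8 added for 1 h and OD450 read. IC50 from dose-response inhibition fit.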

The mark [1] stands for this setting: 144 h, LNCaP/AR cells, 6 days culture, CCK-8.
The mark [2] stands for this setting: LNCaP/AR cells, 6 days culture, CCK-8.

Read-outs that look alike come from different tables or passages of the source.

As for `Cc1ccc(-c2c(C)noc2C)cc1N(CCCCNc1cc2c(cc1F)C(=O)N(C1CCC(=O)NC1=O)C2)c1ccc(C#N)c(Cl)c1` (centres unmarked) [Compound 167, 2-Chloro-4-((5-(3,5-dimethylisoxazol-4-yl)-2-methylphenyl)(4-((2-(2,6-dioxopiperidin-3)-6-fluoro-1-isoindolinone-5-yl)amino)butyl)amino)benzonitrile], the IC50 was 0.501 to 2 µM in the assay with LNCaP/AR cells (LNCaP/AR, 144 h) and over 2 µM in the assay with 22RV1 cells (Homo sapiens).
Turning to `Cc1ccc(-c2c(C)noc2C)cc1N(c1ccc(C2(C#N)CC2)cc1)C1CC2(C1)CN(c1cc3c(cc1F)C(=O)N(C1CCC(=O)NC1=O)C3=O)C2` (centres unmarked) [Compound 170], the IC50 with LNCaP/AR cells (setting [1]) and with 22RV1 cells (Homo sapiens) was over 2 µM each time.
For the molecule `Cc1ccc(-c2c(C)noc2C)cc1N(CCCNc1cc2c(cc1F)C(=O)N(C1CCC(=O)NC1=O)C2=O)c1ccc(C2(C#N)CC2)cc1` (centres unmarked) [Compound 171, 1-(4-((5-(3,5-Dimethylisoxazol-4-yl)-2-methylphenyl)(3-((2-(2,6-dioxopiperidin-3-yl)-6-fluoro-1,3-dioxoidindolin-5-yl)amino)propyl)amino)phenyl)cyclopropane-1-nitrile], the IC50 in the assay on LNCaP/AR cells (setting [2]) and with 22RV1 cells was over 2 µM each time.
Turning to `Cc1ccc(-c2c(C)noc2C)cc1N(CC(C)OC1CN(c2cc3c(cc2F)C(=O)N(C2CCC(=O)NC2=O)C3=O)C1)c1ccc(C2(C#N)CC2)cc1` (centres unmarked) [Compound 173, 1-(4-((5-(3,5-dimethylisoxazol-4-yl)-2-methylphenyl)(2-((1-(2-(2,6-dioxopiperidin-3-yl)-6-fluoro-1,3-dioxoisoindolin-5-yl)azacyclobutane-3-yl)oxy)propyl)amino)phenyl)cyclopropane-1-nitrile], the IC50 fell in the range of 0.501 to 2 µM with LNCaP/AR cells (setting [1]) and 0.101 to 0.5 µM in the assay on 22RV1 cells (Homo sapiens).
Turning to `Cc1ccc(-c2c(C)noc2C)cc1N(CCCNc1cc2c(cc1F)CN(C1CCC(=O)NC1=O)C2=O)c1ccc(C2(C#N)CC2)cc1` (centres unmarked) [Compound 175, 1-(4-((5-(3,5-dimethylisoxazol-4-yl)-2-methylphenyl)(3-((2-(2,6-dioxopiperidin-3-yl)-6-fluoro-3-oxoisoindolin-5-yl)amino)propyl)amino)phenyl)cyclopropane-1-nitrile], the IC50 is 0.501 to 2 µM in the assay on LNCaP/AR cells (setting [1]) and over 2 µM with 22RV1 cells (Homo sapiens).
For the molecule `Cc1ccc(-c2c(C)noc2C)cc1N(CCCNc1cc2c(cc1F)C(=O)N(C1CCC(=O)NC1=O)C2)c1ccc(C2(C#N)CC2)cc1` (centres unmarked) [Compound 176, 1-(4-((5-(3,5-dimethylisoxazol-4-yl)-2-methylphenyl)(3-((2-(2,6-dioxopiperidin-3-yl)-6-fluoro-1-oxoisoindolin-5-yl)amino)propyl)amino)phenyl)cyclopropane-1-nitrile], the IC50 with LNCaP/AR cells (setting [1]) was under 0.1 µM; in the assay on 22RV1 cells (Homo sapiens) it was over 2 µM.
On to `Cc1ccc(-c2c(C)noc2C)cc1N(CC(C)OC1CN(c2cc3c(cc2F)CN(C2CCC(=O)NC2=O)C3=O)C1)c1ccc(C2(C#N)CC2)cc1` (centres unmarked) [Compound 177], for which the figures for the IC50 with LNCaP/AR cells (setting [2]) and in the assay on 22RV1 cells were under 0.1 µM and over 2 µM, respectively.
Consider `Cc1ccc(-c2c(C)noc2C)cc1N(CC(C)OC1CN(c2ccc3c(c2)C(=O)N(C2CCC(=O)NC2=O)C3)C1)c1ccc(C2(C#N)CC2)cc1` (centres unmarked) [Compound 179, 1-(4-((5-(3,5-Dimethylisoxazol-4-yl)-2-methylphenyl)(2-((1-(2-(2,6-dioxopiperidin-3-yl)-3-oxoisoindolin-5-yl)azacyclobutane-3-yl)oxy)propyl)amino)phenyl)cyclopropane-1-nitrile], for which the IC50 in the assay on LNCaP/AR cells (setting [1]) and with 22RV1 cells (Homo sapiens) was over 2 µM in each case.
With `Cc1ccc(-c2c(C)noc2C)cc1N(C[C@H]1C[C@@H]1CNc1cc2c(cc1F)C(=O)N(C1CCC(=O)NC1=O)C2=O)c1ccc(C2(C#N)CC2)cc1` (some centres unmarked) [Compound 181], the IC50 in the assay on LNCaP/AR cells (setting [1]) was over 2 µM; in the assay on 22RV1 cells (Homo sapiens), 0.101 to 0.5 µM.
Consider `Cc1ccc(-c2c(C)noc2C)cc1N(C[C@H]1C[C@@H]1CNc1ccc2c(c1)C(=O)N(C1CCC(=O)NC1=O)C2=O)c1ccc(C2(C#N)CC2)cc1` (some centres unmarked) [Compound 182], for which the IC50 in the assay with LNCaP/AR cells (setting [1]) was over 2 µM; with 22RV1 cells (Homo sapiens), 0.101 to 0.5 µM.
In the same order, the values of `Cc1ccc(-c2c(C)noc2C)cc1N(C[C@H]1C[C@@H]1CNc1cc2c(cc1F)CN(C1CCC(=O)NC1=O)C2=O)c1ccc(C2(C#N)CC2)cc1` (some centres unmarked) [Compound 184] are over 2 µM and over 2 µM.
For `Cc1ccc(-c2c(C)noc2C)cc1N(C[C@H]1C[C@@H]1CNc1cc2c(cc1F)C(=O)N(C1CCC(=O)NC1=O)C2)c1ccc(C2(C#N)CC2)cc1` (some centres unmarked) [Compound 185], the IC50 with LNCaP/AR cells (setting [1]) and in the assay on 22RV1 cells (Homo sapiens) was over 2 µM each time.
`Cc1ccc(-c2c(C)noc2C)cc1N(C[C@H]1C[C@@H]1CNc1ccc2c(c1)C(=O)N(C1CCC(=O)NC1=O)C2)c1ccc(C2(C#N)CC2)cc1` (some centres unmarked) [Compound 186]: the IC50 in the assay on LNCaP/AR cells (setting [1]) and in the assay with 22RV1 cells (Homo sapiens) was over 2 µM each time.
Turning to `Cc1ccc(-c2c(C)noc2C)cc1N(C[C@H]1C[C@@H]1CNc1ccc2c(c1)CN(C1CCC(=O)NC1=O)C2=O)c1ccc(C2(C#N)CC2)cc1` (some centres unmarked) [Compound 187], the IC50 with LNCaP/AR cells (setting [1]) was over 2 µM; in the assay with 22RV1 cells (Homo sapiens) it was 0.501 to 2 µM.
Consider `Cc1ccc(-c2c(C)noc2C)cc1N(CC(C)OC1CCN(c2cc3c(cc2F)C(=O)N(C2CCC(=O)NC2=O)C3=O)CC1)c1ccc(C2(C#N)CC2)cc1` (centres unmarked) [Compound 188], for which the IC50 was 0.501 to 2 µM with LNCaP/AR cells (setting [1]) and 0.101 to 0.5 µM in the assay on 22RV1 cells (Homo sapiens).
In the same order, the values of `Cc1ccc(-c2c(C)noc2C)cc1N(CCC(C)CCNc1cc2c(cc1F)C(=O)N(C1CCC(=O)NC1=O)C2=O)c1ccc(C2(C#N)CC2)cc1` (centres unmarked) [Compound 189, 1-(4-((5-(3,5-dimethylisoxazol-4-yl)-2-methylphenyl)(5-((2-(2,6-dioxopiperidin-3-yl)-6-fluoro-1,3-dioxoisoindolin-5-yl)amino)-3-methylpentanyl)amino)phenyl)cyclopropane-1-carbonitrile] are over 2 µM and 0.501 to 2 µM.
The like results for `Cc1ccc(-c2c(C)noc2C)cc1N(CCC(C)CCNc1cc2c(cc1F)CN(C1CCC(=O)NC1=O)C2=O)c1ccc(C2(C#N)CC2)cc1` (centres unmarked) [Compound 190, 1-(4-((5-(3,5-dimethylisoxazol-4-yl)-2-methylphenyl)(5-((2-(2,6-dioxopiperidin-3-yl)-6-fluoro-3-oxoisoindolin-5-yl)amino)-3-methylpentanyl)amino)phenyl)cyclopropane-1-carbonitrile] were, in that order, over 2 µM and over 2 µM.
In the same order, the values of `Cc1ccc(-c2c(C)noc2C)cc1N(CCC(C)CCNc1cc2c(cc1F)C(=O)N(C1CCC(=O)NC1=O)C2)c1ccc(C2(C#N)CC2)cc1` (centres unmarked) [Compound 191, 1-(4-((5-(3,5-dimethylisoxazol-4-yl)-2-methylphenyl)(5-((2-(2,6-dioxopiperidin-3-yl)-6-fluoro-1-oxoisoindolin-5-yl)amino)-3-methylpentanyl)amino)phenyl)cyclopropane-1-carbonitrile] are over 2 µM and 0.501 to 2 µM.
As for `Cc1ccc(-c2c(C)noc2C)cc1N(CCC(C)CCNc1ccc2c(c1)C(=O)N(C1CCC(=O)NC1=O)C2=O)c1ccc(C2(C#N)CC2)cc1` (centres unmarked) [Compound 192, 1-(4-((5-(3,5-dimethylisoxazol-4-yl)-2-methylphenyl)(5-((2-(2,6-dioxopiperidin-3-yl)-1,3-dioxoisoindolin-5-yl)amino)-3-methylpentanyl)amino)phenyl)cyclopropane-1-carbonitrile], the IC50 was 0.501 to 2 µM with LNCaP/AR cells (setting [1]) and under 0.1 µM with 22RV1 cells (Homo sapiens).
